Test results from paper PMC3600310, “Phage Display Screening for Tumor Necrosis Factor-α-Binding Peptides: Detection of Inflammation in a Mouse Model of Hepatitis” (International Journal of Peptides, 2013).

What was measured:
[1] = ELISA interaction of biotinylated peptides with PFBB coated plate (no target); assay type: binding; conditions: free biotinylated peptide; plate coated with protein-free blocking buffer only; Kd* values could not be estimated
Experimental: The affinity of the selected peptides was evaluated by ELISA as for the phage clones (see Section 2.1.3). The target was immobilized overnight on a 96-well plate at 4°C before a 2-hour incubation with a protein-free blocking buffer solution (PFBB, Pierce, Aalst, Belgium) and then with a range of peptide dilutions: 10^‒3 M to 10^‒6 M. The target-bound biotinylated peptides were detected using ABC (Avidin Biotin Complex) and ABTS solutions as described above. The dissociation constant was estimated from the inflection point of the curve.

TNF-α = TNF-α detection by biotinylated 2C and 2L peptides in liver histological sections; set-up: species or system mouse; conditions: biotinylated peptide 20 μM overnight, ABC complex/DAB, ex vivo
Experimental: Adult mice (n = 6) received a single i.p. injection of 20 mg/Kg of ConA [21], a lymphocyte T activator producing inflammation in mice liver.
Mice were sacrificed 2 hours after intravenous injection of ConA, and their livers were fixed for 24 h in 4% paraformaldehyde. After fixation, the liver was dehydrated by several alcohol and butanol soakings and the organ was subsequently embedded in paraffin according to standard procedures. Sections of 4-micrometer thickness were cut for histological tests.
TNF-α detection by the phage display-selected 2C and 2L peptides was carried out with the same protocol as for anti-TNF-α polyclonal antibody (see Section 2.4.2). Briefly, liver sections were incubated overnight with the biotinylated peptides (20 μM). Reactive sites were detected with the ABC complex and DAB staining.

human TNF-α [2] = experiment: ELISA estimation of apparent dissociation constant (Kd*) between phage clones and TNF-α; assay type: binding; conditions: phage clones; ELISA Kd* on BSA divided by Kd* on TNF-α
Experimental: (a) Estimation of the Apparent Dissociation Constant (K d*) between the Phage Clones and TNF-α. The K d* of phage clones against their target was assessed by the ELISA (enzyme-linked immunosorbent assay) method, using a range of phage dilutions incubated with the specific target.
ELISA plates were treated overnight with the target solution (human TNF-α, 0.01 mg/mL, at 4°C). The next day, the target solution was replaced by the blocking solution as described above. Plates were then incubated for 2 h at 37°C with serial phage dilutions (6.5 × 10^−11 – 3.3 × 10^−8 M) prepared in PBS containing 0.3% Tween 20. After rinsing the plate 6 times with the same buffer, phages were detected with a peroxidase-conjugated anti-M13 monoclonal antibody (Amersham Pharmacia Biotech Benelux, Roosendaal, The Netherlands) diluted 1 : 5000 in the blocking buffer. The peroxidase detection was performed using 2,2′-azino-bis[3-ethylbenztiazoline-6-sulfonic acid, diammonium salt] (ABTS, Sigma-Aldrich; 22 mg in 100 mL of 50 mM sodium citrate, pH 4.0) supplemented with 0.05% H2O2. After 30–60 min of incubation at room temperature, the OD405 values were measured on a microplate reader (Stat-Fax-2100, Awareness Technology Inc., Fisher Bioblock Scientific, Tournai, Belgium) for K d* evaluation.

human TNF-α [3] = experiment: ELISA competition of phage clones with an anti-TNF-α antibody; assay type: binding; conditions: for IC50: antibody concentration that inhibits by 50% the phage-TNF-α interaction, antibody 1.3 × 10^−9 to 6.66 × 10^−7 M pre-incubated 30 min, then phage at Kd* concentration 1 h, high IC50 = strong phage binding, read-out: IC50 of the anti-TNF-α antibody against the phage clone; for IC50 Ab anti-TNF-α/Kd clone ratio: phage clones, IC50 of the anti-TNF-α antibody divided by Kd* of the clone
Experimental: (b) Competition Experiments with an Anti-TNF-α Antibody. Competition experiments were performed in the same manner as the K d* experiments except that clones were set in competition with an anti-TNF-α antibody (R&D Systems Inc., Abington, UK) in dilutions ranging from 1.3 × 10^−9 to 6.66 × 10^−7 M in a PBS solution. Plates were first incubated for 30 min with 50 μL/well of antibody dilutions before a one-hour incubation with 50 μL of phage solutions at the K d* concentration. The IC50 of the anti-TNF-α antibody is the antibody concentration required to inhibit by 50% the interaction between phages and TNF-α.
The objective of this test is to set up a competition between every phage clone and another ligand of the target to calculate an inhibition constant value (IC50).

| Substance | Interaction with the PFBB coated plate [1] | Staining of healthy liver sections (TNF-α) | Kd BSA/Kd TNF-α ratio (human TNF-α [2]) | IC50 (human TNF-α [3]) | IC50 Ab anti-TNF-α/Kd clone ratio (human TNF-α [3]) | Staining of liver sections of ConA-treated mice (TNF-α; C57BL/6 mice, ConA 20 mg/Kg, sacrificed 2 hours after injection) |
| --- | --- | --- | --- | --- | --- | --- |
| (C-)PATLTSL(-C) (disulfide) [Clone 2C, biotinylated cyclic form of the PATLTSL peptide (peptide 2)] | only a weak interaction | did not show such a staining |  |  |  |  |
| C-PATLTSL-C (disulfide) [Clone C30-R3, phage clone 30 from round 3 displaying cyclic heptapeptide C-PATLTSL-C] |  |  | 4.2 × 10^6 | 127 nM | 6195 |  |
| C-NNPLKSL-C (disulfide) [Clone C47-R4, phage clone 47 from round 4 displaying cyclic heptapeptide C-NNPLKSL-C] |  |  | 0.02 |  |  |  |
| PATLTSL [Clone 2L, biotinylated linear form of the PATLTSL peptide (peptide 2)] | only a weak interaction |  |  |  |  | did not yield such a result |
| C-GSKTQAP-C (disulfide) [Clone C2-R3, phage clone 2 from biopanning round 3 displaying cyclic heptapeptide C-GSKTQAP-C] |  |  | 6 × 10^6 | 112 nM | 1087 |  |
